The numbers were not newly measured in patent US20070117867A1, “Kit comprising three independent compositions and methods for building muscle, increasing strength, increasing muscle size, increasing muscle performance and reducing muscle fatigue” (priority 2005, published 2007), which cites them from elsewhere.

For data set [1], the system named is protein synthesis. As to conditions: for the purposes of muscle growth and development.
The test system of data set [2] is muscle. The note with it: Creatine supplementation.
In data set [3] the test system is type II diabetics.

For `CC(C)C[C@H](N)C(=O)O` [Leucine], in data set [1], the protein synthesis entry was “directly activate”.

In the case of `CN(CC(=O)O)C(=N)N` [Creatine], the “concentration of Creatine in the muscle” value in data set [2] is “increase”. In data set [2] (within 2 minutes of recovery following exercise), the “resynthesis of Phosphocreatine” value is “increase”.

Take `O=C(O)CCCCC1CCSS1` (stereo not drawn) [Alpha Lipoic Acid]: in data set [3], the “body's utilization of blood sugar” value is “significantly increase”.
